Data reported in article PMC5699024 (Proceedings of the National Academy of Sciences of the …, 2017).
“Also recorded” adds a separate entry of the source.

Assays:
AND T cells [1] = experiment: ICAM-YFP distribution and T cell contact with supported membrane; format: cell-based, mouse; details: 1 h pretreatment
AND T cells [2] = experiment: ZAP70-EGFP recruitment and cell morphology; format: cell-based, mouse; details: for ZAP70 recruitment to plasma membrane / cell morphology: T102S/MHC well below, MCC/MHC above NFAT threshold; for linear ZAP70-EGFP trajectories: ∼5-min window, TIRF
5c.c7 TCR = experiment: single-molecule pMHC:TCR dwell time in live T cells; format: binding, mouse; details: almost four orders of magnitude of pMHC density
AND T cells [3] = experiment: NFAT translocation assay; format: cell-based, mouse; details: MCC/MHC:AND; unlabeled CD80 on bilayer (200 molecules per micrometer)
CD28 [4] = molecular target: T1, CD28 (Mus musculus, UniProt P31041); experiment: single-molecule CD80:CD28 binding in AND T cells; details: 3-s time lapse, ∼10 cells, one experiment
T1 sequence (P31041 20-218): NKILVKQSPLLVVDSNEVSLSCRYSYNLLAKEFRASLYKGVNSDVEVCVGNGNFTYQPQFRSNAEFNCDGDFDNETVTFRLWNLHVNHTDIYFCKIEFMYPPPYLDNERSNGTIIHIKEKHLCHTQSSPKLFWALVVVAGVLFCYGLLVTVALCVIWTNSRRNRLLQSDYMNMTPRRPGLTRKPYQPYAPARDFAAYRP

CD28 [5] = details: CD80:CD28 solution affinity, comparable with pMHC:TCR; ref [25], [32]–[34]; cited from earlier work

## COC(=O)[C@H](CC(C)C)NC(=O)c1ccc(NC[C@@H](N)CS)cc1-c1cccc2ccccc12 [GGTI-298]
AND T cells [1]
  ICAM-YFP distribution: relatively even ICAM-YFP distribution across the T cell
  probability of T cell landing on supported membrane: decreased the probability of the T cell’s landing on the supported membrane

## ANERADLIAYLKQASK [T102S]
AND T cells [2]
  ZAP70 recruitment to plasma membrane: low levels
  cell morphology: asymmetric, crawling morphology
  linear ZAP70-EGFP trajectories: asymmetric

## ANERADLIAYLKQATK [MCC, moth cytochrome c (amino acids 88–103)]
AND T cells [2]
  ZAP70 recruitment to plasma membrane: enhanced ZAP70 recruitment
  cell morphology: stationary, centrosymmetric cell morphology
  linear ZAP70-EGFP trajectories: centrosymmetric
5c.c7 TCR
  〈τoff〉 over pMHC density titration: remains constant

## CD80: decahistidine-tagged CD80 protein expressed in High Five cells; costimulatory ligand of CD28
AND T cells [3]
  effect of CD80 on NFAT threshold density, MCC: lowers the NFAT threshold density
CD28 [4]
  CD80:CD28 〈τoff〉 versus pMHC density: constant as a function of pMHC density; also recorded: constant with respect to pMHC density
CD28 [5]
  solution affinity: low micromolar range
